Experiments:
[1] = biological target: human Farnesoid X receptor ligand-binding domain/Gal4 DNA binding domain chimera (Homo sapiens (Human), UniProt Q96RI1); experiment: Cell-based assay of FXR activation (FXR-UAS-bla HEK 293T beta-lactamase reporter); conditions: cellular FXR beta-lactamase reporter assay; for Emax: HEK-293T, extent of activation relative to GW4064, read-out: % Efficacy
Procedure, shortened: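 Readout is cleavage of the CCF4 FRET substrate (409 nm excitation, blue 447 nm signal) by beta-lactamase, expressed under UAS control after a Gal4–human FXR LBD chimera is activated in HEK 293T cells. Compounds were added as 3-fold dilutions for 16 h at 37 °C in 2% charcoal-stripped FBS medium. Curves were fit to a 3-parameter logistic equation to give pEC50, with % activation relative to GW4064.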

[2] = biological target: ligand binding domain of human FXR (Homo sapiens (Human), UniProt Q96RI1); experiment: FXR ligand binding assay (LanthaScreen TR-FRET, SRC2-2 peptide recruitment); conditions: for Emax: extent of activation relative to GW4064, read-out: % Efficacy
[3] = FXR-UAS-bla HEK 293T cells, 16 h, pEC50 = -log EC50
[4] = -log EC50, concentration required to produce 50% activation

Sequence of human Farnesoid X receptor ligand-binding domain/Gal4 DNA binding domain chimera (Q96RI1 262-486, change not shown): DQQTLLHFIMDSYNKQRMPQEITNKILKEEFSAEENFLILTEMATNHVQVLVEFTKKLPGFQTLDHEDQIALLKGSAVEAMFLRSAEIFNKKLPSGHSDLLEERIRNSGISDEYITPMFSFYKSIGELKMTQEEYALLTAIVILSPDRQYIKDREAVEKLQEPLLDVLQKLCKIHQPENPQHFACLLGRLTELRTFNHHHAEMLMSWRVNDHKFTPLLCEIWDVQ
Sequence of human Farnesoid X receptor ligand-binding domain/Gal4 DNA binding domain chimera (P04386 1-147 partner): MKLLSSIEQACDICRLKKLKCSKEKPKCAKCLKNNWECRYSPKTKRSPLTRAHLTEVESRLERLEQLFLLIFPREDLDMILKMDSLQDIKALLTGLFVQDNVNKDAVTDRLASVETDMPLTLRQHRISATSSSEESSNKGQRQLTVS
Sequence of ligand binding domain of human FXR (Q96RI1 262-486): as the sequence (Q96RI1 262-486, change not shown) above

For Cc1cccc(Cl)c1-c1noc(C2CC2)c1CO[C@@H]1C[C@@H]2C[C@H]1CN2c1nc2c(C3CCOCC3)cc(C(=O)O)cc2s1 [Compound I-271, 2-((1S,4S,5R)-5-((3-(2-chloro-6-methylphenyl)-5-cyclopropylisoxazol-4-yl)methoxy)-2-azabicyclo[2.2.1]heptan-2-yl)-4-(tetrahydro-2H-pyran-4-yl)benzo[d]thiazole-6-carboxylic acid], the Emax [1] was 108%, the EC50 [1, 3] was 0.398 nM and the pEC50 [2, 4] was 8.6. The Emax [2] was 132%.

Compound O=C(O)c1cc(OC(F)(F)F)c2nc(N3C[C@@H]4C[C@H]3C[C@H]4OCc3c(C4CCOCC4)noc3C3CC3)sc2c1 [Compound I-23, 2-[(1S,4S,5R)-5-{[5-cyclopropyl-3-(oxan-4-yl)-1,2-oxazol-4-yl]methoxy}-2-azabicyclo[2.2.1]heptan-2-yl]-4-(trifluoromethoxy)-1,3-benzothiazole-6-carboxylic Acid] has an Emax [1] of 100%, an EC50 [1, 3] of 631 nM and a pEC50 [2, 4] of 5.5. For the same compound, the Emax [2] was 85%.

Work on COc1cc(Cl)c(-c2noc(C3CC3)c2CO[C@@H]2C[C@@H]3C[C@H]2CN3c2nc3c(F)cc(C(=O)O)cc3s2)c(Cl)c1 [Compound I-286, 2-[(1S,4S,5R)-5-{[5-cyclopropyl-3-(2,6-dichloro-4-methoxyphenyl)-1,2-oxazol-4-yl]methoxy}-2-azabicyclo[2.2.1]heptan-2-yl]-4-fluoro-1,3-benzothiazole-6-carboxylic Acid] yielded an Emax [1] of 108%, an EC50 [1, 3] of 39.8 nM and a pEC50 [2, 4] of 8.7. It also gave an Emax [2] of 130%.

Compound O=C(NS(=O)(=O)C1COC1)c1ccc(N2C[C@@H]3C[C@H]2C[C@H]3OCc2c(-c3c(Cl)cccc3Cl)noc2C2CC2)cc1 [Compound I-184, 4-((1S,4S,5R)-5-((5-cyclopropyl-3-(2,6-dichlorophenyl)isoxazol-4-yl)methoxy)-2-azabicyclo[2.2.1]heptan-2-yl)-N-(oxetan-3-ylsulfonyl)benzamide] has an Emax [1] of 108%, an EC50 [1, 3] of 3.16 nM and a pEC50 [2, 4] of 7.7. For the same compound, the Emax [2] was 161%.

O=C(NS(=O)(=O)C1CC1)c1cnc(N2C[C@@H]3C[C@H]2C[C@H]3OCc2c(-c3c(Cl)cccc3Cl)noc2C2CC2)c(F)c1 [Compound I-207, 6-((1S,4S,5R)-5-((5-cyclopropyl-3-(2,6-dichlorophenyl)isoxazol-4-yl)methoxy)-2-azabicyclo[2.2.1]heptan-2-yl)-N-(cyclopropylsulfonyl)-5-fluoronicotinamide] gave an Emax [1] of 104%, an EC50 [1, 3] of 3.98 nM and a pEC50 [2, 4] of 8.6. It also gave an Emax [2] of 152%.

In the case of CC1(C)CC(S(=O)(=O)NC(=O)c2ccc(N3C(=O)[C@@H]4C[C@H]3C[C@H]4OCc3c(-c4c(Cl)cccc4Cl)noc3C3CC3)cc2F)CCO1 (stereo partly drawn) [Compound I-330, 4-[(1S,4R,5R)-5-{[5-cyclopropyl-3-(2,6-dichlorophenyl)-1,2-oxazol-4-yl]methoxy}-3-oxo-2-azabicyclo[2.2.1]heptan-2-yl]-N-[(2,2-dimethyloxan-4-yl)sulfonyl]-2-fluorobenzamide], the Emax [1] is reported as 120%, the EC50 [1, 3] is reported as 0.158 nM and the pEC50 [2, 4] is reported as 8.8. The Emax [2] was 156%.

O=C(NS(=O)(=O)C1CC1)c1ccc(N2C[C@@H]3C[C@H]2C[C@H]3OCc2c(-c3c(Cl)cccc3Cl)noc2C2CC2)cc1F [Compound I-195, 4-((1S,4S,5R)-5-((5-cyclopropyl-3-(2,6-dichlorophenyl)isoxazol-4-yl)methoxy)-2-azabicyclo[2.2.1]heptan-2-yl)-N-(cyclopropylsulfonyl)-2-fluorobenzamide] showed an Emax [1] of 109%, an EC50 [1, 3] of 0.316 nM and a pEC50 [2, 4] of 8.8. For the same compound, the Emax [2] was 144%.

O=C(O)c1nnc(N2C[C@@H]3C[C@H]2C[C@H]3OCc2c(-c3c(Cl)cccc3Cl)noc2C2CC2)s1 [Compound I-178, 5-[(1S,4S,5R)-5-{[5-cyclopropyl-3-(2,6-dichlorophenyl)-1,2-oxazol-4-yl]methoxy}-2-azabicyclo[2.2.1]heptan-2-yl]-1,3,4-thiadiazole-2-carboxylic Acid] showed an Emax [1] of 70%, an EC50 [1, 3] of 158 nM and a pEC50 [2, 4] of 6.9. The Emax [2] was 86%.

With O=C(NS(=O)(=O)[C@@H]1CCC[C@H]1O)c1ccc(N2C(=O)[C@@H]3C[C@H]2C[C@H]3OCc2c(-c3c(Cl)cccc3Cl)noc2C2CC2)cc1F [Compound I-346, 4-[(1S,4R,5R)-5-{[5-cyclopropyl-3-(2,6-dichlorophenyl)-1,2-oxazol-4-yl]methoxy}-3-oxo-2-azabicyclo[2.2.1]heptan-2-yl]-2-fluoro-N-{[(1R,2R)-2-hydroxycyclopentyl]sulfonyl}benzamide] the Emax [1] was 133%, the EC50 [1, 3] was 0.794 nM and the pEC50 [2, 4] was 8.2. It also gave an Emax [2] of 188%.

O=C(O)c1cc(C2CCCOCC2)c2nc(N3C[C@@H]4C[C@H]3C[C@H]4OCc3c(-c4c(Cl)cccc4Cl)noc3C3CC3)sc2c1 (stereo partly drawn) [Compound I-258, 2-[(1S,4S,5R)-5-{[5-cyclopropyl-3-(2,6-dichlorophenyl)-1,2-oxazol-4-yl]methoxy}-2-azabicyclo[2.2.1]heptan-2-yl]-4-(oxepan-4-yl)-1,3-benzothiazole-6-carboxylic Acid] gave an Emax [1] of 106%, an EC50 [1, 3] of 0.126 nM and a pEC50 [2, 4] of 8.6. It also gave an Emax [2] of 146%.

With CC[N+](C)(CC)CCCCCCCCCCS(=O)(=O)NC(=O)c1ccc(N2C[C@@H]3C[C@H]2C[C@H]3OCc2c(-c3c(Cl)cccc3Cl)noc2C2CC2)c(F)c1 [Compound I-226] the Emax [1] was 152%, the pEC50 [1, 3] was 6.6 and the Emax [2] was 148%.

For Cc1cccc(Cl)c1-c1noc(C2CC2)c1CO[C@@H]1C[C@@H]2C[C@H]1CN2c1ccc(CCC(=O)NS(C)(=O)=O)cc1F [Compound I-241, 3-(4-((1S,4S,5R)-5-((3-(2-chloro-6-methylphenyl)-5-cyclopropylisoxazol-4-yl)methoxy)-2-azabicyclo[2.2.1]heptan-2-yl)-3-fluorophenyl)-N-(methylsulfonyl)propanamide], the Emax [1] was 98%, the EC50 [1, 3] was 10 nM and the pEC50 [2, 4] was 8. For the same compound, the Emax [2] was 176%.

Compound O=C(NS(=O)(=O)C1CCOC1)c1ccc(N2C(=O)[C@@H]3C[C@H]2C[C@H]3OCc2c(-c3c(Cl)cccc3Cl)noc2C2CC2)cc1F (stereo partly drawn) [Compound I-334, 4-((1S,4R,5R)-5-((5-cyclopropyl-3-(2,6-dichlorophenyl)isoxazol-4-yl)methoxy)-3-oxo-2-azabicyclo[2.2.1]heptan-2-yl)-2-fluoro-N-((tetrahydrofuran-3-yl)sulfonyl)benzamide] has an Emax [1] of 104%, an EC50 [1, 3] of 1 nM and a pEC50 [2, 4] of 9. For the same compound, the Emax [2] was 180%.

Compound O=C(NS(=O)(=O)C1CC1)c1ccc(N2C[C@H]3C[C@@H]2C[C@@H]3OCc2c(-c3c(Cl)cccc3Cl)noc2C2CC2)cc1 [Compound I-232, 4-((1R,4R,5S)-5-((5-cyclopropyl-3-(2,6-dichlorophenyl)isoxazol-4-yl)methoxy)-2-azabicyclo[2.2.1]heptan-2-yl)-N-(cyclopropylsulfonyl)benzamide] has an Emax [1] of 93%, an EC50 [1, 3] of 25.1 nM and a pEC50 [2, 4] of 8.1. It also gave an Emax [2] of 126%.

O=C(NS(=O)(=O)C1CC1)c1ccc(N2C(=O)[C@@H]3C[C@H]2C[C@H]3OCc2c(-c3c(Cl)cccc3Cl)noc2C2CC2)cc1 [Compound I-337, 4-((1S,4R,5R)-5-((5-cyclopropyl-3-(2,6-dichlorophenyl)isoxazol-4-yl)methoxy)-3-oxo-2-azabicyclo[2.2.1]heptan-2-yl)-N-(cyclopropylsulfonyl)benzamide] showed an Emax [1] of 110%, an EC50 [1, 3] of 2 nM and a pEC50 [2, 4] of 8.6. It also gave an Emax [2] of 174%.

With O=C(CCc1ccc(N2C[C@@H]3C[C@H]2C[C@H]3OCc2c(-c3c(F)cccc3Cl)noc2C2CC2)c(F)c1)NS(=O)(=O)C1CCOCC1 [Compound I-235, 3-{4-[(1S,4S,5R)-5-{[3-(2-chloro-6-fluorophenyl)-5-cyclopropyl-1,2-oxazol-4-yl]methoxy}-2-azabicyclo[2.2.1]heptan-2-yl]-3-fluorophenyl}-N-(oxane-4-sulfonyl)propanamide] the Emax [1] was 94%, the EC50 [1, 3] was 3.98 nM and the pEC50 [2, 4] was 8.2. It also gave an Emax [2] of 176%.

Compound Cn1nc(C(=O)NS(=O)(=O)C2CC2)cc1N1C[C@@H]2C[C@H]1C[C@H]2OCc1c(-c2c(Cl)cccc2Cl)noc1C1CC1 [Compound I-233, N-(cyclopropanesulfonyl)-5-[(1S,4S,5R)-5-{[5-cyclopropyl-3-(2,6-dichlorophenyl)-1,2-oxazol-4-yl]methoxy}-2-azabicyclo[2.2.1]heptan-2-yl]-1-methyl-1H-pyrazole-3-carboxamide] has an EC50 [1, 3] of less than 31.6 nM, a pEC50 [2, 4] of 7.8 and an Emax [2] of 77%.

With O=C(NS(=O)(=O)CC1CCOC1)c1ccc(N2C(=O)[C@@H]3C[C@H]2C[C@H]3OCc2c(-c3c(Cl)cccc3Cl)noc2C2CC2)cc1 (stereo partly drawn) [Compound I-341, 4-((1S,4R,5R)-5-((5-cyclopropyl-3-(2,6-dichlorophenyl)isoxazol-4-yl)methoxy)-3-oxo-2-azabicyclo[2.2.1]heptan-2-yl)-N-(((tetrahydrofuran-3-yl)methyl)sulfonyl)benzamide] the Emax [1] was 109%, the EC50 [1, 3] was 10 nM and the pEC50 [2, 4] was 8.7. The Emax [2] was 164%.

In the case of O=C(O)c1cc(OC(F)(F)F)c2nc(N3C[C@@H]4C[C@H]3C[C@H]4OCc3c(C4CCCCC4)noc3C3CC3)sc2c1 [Compound I-22, 2-[(1S,4S,5R)-5-[(3-cyclohexyl-5-cyclopropyl-1,2-oxazol-4-yl)methoxy]-2-azabicyclo[2.2.1]heptan-2-yl]-4-(trifluoromethoxy)-1,3-benzothiazole-6-carboxylic Acid], the Emax [1] is reported as 113%, the EC50 [1, 3] is reported as 126 nM and the EC50 [2, 4] is reported as 316 nM. For the same compound, the Emax [2] was 85%.

For O=C(O)[C@H]1CCc2cc(N3C[C@@H]4C[C@H]3C[C@H]4OCc3c(-c4c(Cl)cccc4Cl)noc3C3CC3)ccc2C1 (single isomer, unassigned) [Compound I-138], the Emax [1] was 106%, the EC50 [1, 3] was 15.8 nM and the pEC50 [2, 4] was 7.6. For the same compound, the Emax [2] was 132%.
